Experimental findings from US10392383B2, “3-(1H-benzo[d]imidazol-2-yl)-1H-pyrazolo[4,3-b]pyridines and therapeutic uses thereof” (Samumed, LLC, priority 2015, dated 2019) are described below.

Assay type in all cases: cell-based
For one assay, the system named is IL-6 (THP-1 cells). Description: IL-6 inhibition in LPS-stimulated THP-1 monocytes (HTRF). Particulars: Homo sapiens, IL-6 HTRF; for EC50: 500 ng/mL LPS, Table 6; for inhibition at 10 µM: LPS, Table 6, read-out: percent inhibition at 10 μM (given in parentheses for EC50 >10 μM). The gist of the method:
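THP-1 cells in 1% FBS pre-incubated 2 h with compound (10-point 1:3 series from 10 μM, 0.1% DMSO), then stimulated with 500 ng/mL LPS for 22 h at 37 °C. IL-6 measured by HTRF 665/620 ratio, normalized to DMSO; EC50 by four-parameter fit, or % inhibition at 10 μM when EC50 >10 μM.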
On the technique in general: Time-resolved FRET reads energy transfer from a long-lived donor to a nearby acceptor.

Assay [1] has as its system Wnt activity (Sp5-Luc reporter, Wnt-responsive promoter) in SW480 colon carcinoma cells. Description: Wnt activity screening assay: Sp5-Luc reporter gene assay in SW480 cells. Particulars: Homo sapiens, overnight incubation, 10-point curve starting from 10 μM. The method, boiled down: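 First, hygromycin-selected SW480 Sp5-Luc reporter cells are seeded in medium with 1% fetal bovine serum and exposed overnight to compound (up to 10 μM, 0.1% DMSO). Next, luciferase signal is read by luminescence. Finally, EC50 is fitted, or percent inhibition at 10 μM is reported above 10 μM.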

For the next assay, the system named is SW480 colon cancer cells. Description: Cell viability assay (CellTiter-Blue) in SW480 cells. Particulars: Homo sapiens, 96 h, four days, CellTiter-Blue, 10 μM to 0.0045 μM. The gist of the method:
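SW480 cells (~2×10^3 per well) were exposed to compound for four days at 37 °C/5% CO2, using 8-point 1:3 dilutions from 10 μM to 0.0045 μM in duplicate. Viability was read by resazurin reduction (CellTiter-Blue, ~3 h, Ex 560/Em 590 nm). EC50 came from non-linear regression; above 10 μM, percent inhibition at 10 μM is given.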
(In general: Alamar Blue is a resazurin reagent that responds to reducing activity.)

SMILES strings stand for the structures.

As a reminder, the EC50 is the concentration needed to bring the measured effect to its halfway point. Low values mean an effect from little substance, high ones a need for much substance. `c1ccc(CNCc2cncc(-c3ccc4[nH]nc(-c5nc6c(-c7ccsc7)cccc6[nH]5)c4n3)c2)cc1` [Compound 304, N-Benzyl-1-(5-(3-(4-(thiophen-3-yl)-1H-benzo[d]imidazol-2-yl)-1H-pyrazolo[4,3-b]pyridin-5-yl)pyridin-3-yl)methanamine]: the EC50 in the assay on IL-6 (THP-1 cells) was determined as 5330 nM; in assay [1] it was 2760 nM; in the assay with SW480 colon cancer cells it was 3460 nM.

As for `Oc1cncc(-c2ccc3[nH]nc(-c4nc5c(-c6cccnc6)cccc5[nH]4)c3n2)c1` [Compound 565, 5-(3-(4-(Pyridin-3-yl)-1H-benzo[d]imidazol-2-yl)-1H-pyrazolo[4,3-b]pyridin-5-yl)pyridin-3-ol], the EC50 in the assay with IL-6 (THP-1 cells) worked out at 232 nM; in assay [1], 1450 nM; with SW480 colon cancer cells, 1140 nM.

For orientation: inhibition means the relative decrease from the control value, in per cent. With `Cc1cn(-c2cccc3[nH]c(-c4n[nH]c5ccc(-c6cncc(NC(=O)C7CCC7)c6)nc45)nc23)cn1` [Compound 217, N-(5-(3-(4-(4-Methyl-1H-imidazol-1-yl)-1H-benzo[d]imidazol-2-yl)-1H-pyrazolo[4,3-b]pyridin-5-yl)pyridin-3-yl)cyclobutanecarboxamide], the EC50 in the assay on IL-6 (THP-1 cells) was greater than 10000 nM; in assay [1], 2840 nM; in the assay on SW480 colon cancer cells it was 3500 nM. The inhibition at 10 µM with IL-6 (THP-1 cells) worked out at 51.9%.

Take `CN(C)Cc1cncc(-c2ccc3[nH]nc(-c4nc5c(-c6cccc(F)c6)cccc5[nH]4)c3n2)c1` [Compound 13, 1-(5-(3-(4-(3-Fluorophenyl)-1H-benzo[d]imidazol-2-yl)-1H-pyrazolo[4,3-b]pyridin-5-yl)pyridin-3-yl)-N,N-dimethylmethanamine]: the EC50 is 1370 nM in the assay on IL-6 (THP-1 cells), 637 nM in assay [1] and 466 nM in the assay on SW480 colon cancer cells.

Regarding `CN(C)CCOc1cncc(-c2ccc3[nH]nc(-c4nc5c(-c6cccc(F)c6)cccc5[nH]4)c3n2)c1` [Compound 515, 2-((5-(3-(4-(3-Fluorophenyl)-1H-benzo[d]imidazol-2-yl)-1H-pyrazolo[4,3-b]pyridin-5-yl)pyridin-3-yl)oxy)-N,N-dimethylethan-1-amine], the values for the EC50 (in the assay with IL-6 (THP-1 cells); in assay [1]; in the assay on SW480 colon cancer cells) were 7380 nM, 4670 nM and 1380 nM, respectively.

Regarding `Cc1ccc(-c2cccc3[nH]c(-c4n[nH]c5ccc(-c6cncc(N)c6)nc45)nc23)s1` [Compound 395, 5-(3-(4-(5-Methylthiophen-2-yl)-1H-benzo[d]imidazol-2-yl)-1H-pyrazolo [4,3-b]pyridin-5-yl)pyridin-3-amine], the EC50 in the assay on IL-6 (THP-1 cells) came to 64 nM; in assay [1], 78 nM; in the assay with SW480 colon cancer cells, 320 nM.

For `Cc1ncc(-c2ccc3[nH]nc(-c4nc5c(-c6cccc(F)c6)cccc5[nH]4)c3n2)n1C` [Compound 509, 5-(1,2-Dimethyl-1H-imidazol-5-yl)-3-(4-(3-fluorophenyl)-1H-benzo[d]imidazol-2-yl)-1H-pyrazolo[4,3-b]pyridine], the values for the EC50 (in the assay with IL-6 (THP-1 cells); in assay [1]; with SW480 colon cancer cells) were 788 nM, 160 nM and 414 nM, respectively.

On to `Cc1ccncc1-c1ccc2[nH]nc(-c3nc4c(-c5cc(F)cc(CNS(C)(=O)=O)c5)cccc4[nH]3)c2n1` [Compound 481, N-(3-Fluoro-5-(2-(5-(4-methylpyridin-3-yl)-1H-pyrazolo[4,3-b]pyridin-3-yl)-1H-benzo[d]imidazol-4-yl)benzyl)methanesulfonamide], for which the figures for the EC50 (in the assay on IL-6 (THP-1 cells); in assay [1]; in the assay with SW480 colon cancer cells) were 2120 nM, 1340 nM and 5590 nM, respectively.

For `COc1cncc(-c2ccc3[nH]nc(-c4nc5c(-c6cccc(F)c6)cccc5[nH]4)c3n2)c1` [Compound 516, 3-(4-(3-Fluorophenyl)-1H-benzo[d]imidazol-2-yl)-5-(5-methoxypyridin-3-yl)-1H-pyrazolo[4,3-b]pyridine], the results for the EC50 (with IL-6 (THP-1 cells); in assay [1]; in the assay on SW480 colon cancer cells) were greater than 10000 nM, 923 nM and 1160 nM, respectively. In addition, the inhibition at 10 µM with IL-6 (THP-1 cells) is 49.5%.

Take `Cc1ccncc1-c1ccc2[nH]nc(-c3nc4c(-c5ccsc5)cccc4[nH]3)c2n1` [Compound 285, 5-(4-Methylpyridin-3-yl)-3-(4-(thiophen-3-yl)-1H-benzo[d]imidazol-2-yl)-1H-pyrazolo[4,3-b]pyridine]: the EC50 is greater than 10000 nM in the assay on IL-6 (THP-1 cells), 986 nM in assay [1] and 5400 nM in the assay with SW480 colon cancer cells. For the same compound, the inhibition at 10 µM in the assay with IL-6 (THP-1 cells) is 36.3%.

As to `CN(C)c1cncc(-c2ccc3[nH]nc(-c4nc5c(-c6cccc(F)c6)cccc5[nH]4)c3n2)c1` [Compound 7, 5-(3-(4-(3-fluorophenyl)-1H-benzo[d]imidazol-2-yl)-1H-pyrazolo[4,3-b]pyridin-5-yl)-N,N-dimethylpyridin-3-amine], the EC50 in the assay with IL-6 (THP-1 cells) was 9500 nM; in assay [1], 779 nM; in the assay on SW480 colon cancer cells, 2780 nM.

Turning to `FC1(F)CCN(Cc2cncc(-c3ccc4[nH]nc(-c5nc6c(-c7ccsc7)cccc6[nH]5)c4n3)c2)C1` [Compound 306, 5-(5-((3,3-Difluoropyrrolidin-1-yl)methyl)pyridin-3-yl)-3-(4-(thiophen-3-yl)-1H-benzo[d]imidazol-2-yl)-1H-pyrazolo[4,3-b]pyridine], the EC50 in the assay with IL-6 (THP-1 cells) came out at 4480 nM; in assay [1] it was 1650 nM; in the assay on SW480 colon cancer cells, 4790 nM.

As for `c1csc(-c2cccc3[nH]c(-c4n[nH]c5ccc(-c6ccncc6)nc45)nc23)c1` [Compound 354, 5-(Pyridin-4-yl)-3-(4-(thiophen-2-yl)-1H-benzo[d]imidazol-2-yl)-1H-pyrazolo[4,3-b]pyridine], the EC50 with IL-6 (THP-1 cells) was greater than 10000 nM; in assay [1], 3770 nM; in the assay with SW480 colon cancer cells, 2800 nM. For the same compound, the inhibition at 10 µM with IL-6 (THP-1 cells) was determined as 20.4%.

On to `Oc1cncc(-c2ccc3[nH]nc(-c4nc5c(N6CCCCC6)cccc5[nH]4)c3n2)c1` [Compound 613, 5-(3-(4-(Piperidin-1-yl)-1H-benzo[d]imidazol-2-yl)-1H-pyrazolo[4,3-b]pyridin-5-yl)pyridin-3-ol], for which the figures for the EC50 (in the assay on IL-6 (THP-1 cells); in assay [1]; in the assay on SW480 colon cancer cells) were 6770 nM, 1550 nM and 2710 nM, respectively.

Turning to `c1cncc(-c2ccc3[nH]nc(-c4nc5ccccc5[nH]4)c3n2)c1` [Compound 256, 3-(1H-Benzo[d]imidazol-2-yl)-5-(pyridin-3-yl)-1H-pyrazolo[4,3-b]pyridine], the half-maximal effective concentration (EC50) in the assay with IL-6 (THP-1 cells) was greater than 10000 nM; in assay [1], 5480 nM; in the assay on SW480 colon cancer cells, 8840 nM. In addition, the inhibition at 10 µM with IL-6 (THP-1 cells) was determined as 0%.

With `CS(=O)(=O)NCc1cc(F)cc(-c2cccc3[nH]c(-c4n[nH]c5ccc(-c6cncc(CNCc7ccccc7)c6)nc45)nc23)c1` [Compound 500, N-(3-(2-(5-(5-((Benzylamino)methyl)pyridin-3-yl)-1H-pyrazolo[4,3-b]pyridin-3-yl)-1H-benzo[d]imidazol-4-yl)-5-fluorobenzyl)methanesulfonamide], the EC50 in the assay with IL-6 (THP-1 cells) was found to be 1340 nM; in assay [1], 2340 nM; in the assay on SW480 colon cancer cells, 3100 nM.

With `Cn1cc(-c2ccc3[nH]nc(-c4nc5c(-c6cccc(F)c6)cccc5[nH]4)c3n2)cn1` [Compound 508, 3-(4-(3-Fluorophenyl)-1H-benzo[d]imidazol-2-yl)-5-(1-methyl-1H-pyrazol-4-yl)-1H-pyrazolo[4,3-b]pyridine], the EC50 in the assay with IL-6 (THP-1 cells) was greater than 10000 nM; in assay [1], 518 nM; with SW480 colon cancer cells it was 1120 nM. The inhibition at 10 µM in the assay on IL-6 (THP-1 cells) is 0%.
